Experiments:
[1] = tested on: Candida albicans IFO-0583; test: Antibacterial and antifungal activity, paper disc method; type: cell-based; settings: IFO0583, paper disc d=8 mm dipped in 1,000 µg/ml solution, YNB agar medium, read-out: diameter of the growth inhibition circle, Can.(IFO-0583)
Procedure: (§1) Antibacterial and antifungal activity tests for various bacteria and fungi were conducted. The tests were carried out by the conventional paper disc method. That is, a paper disc (d=8 mm) was dipped in aqueous or methanol solution of the compound of the present invention (concentration : 1,000 µg/ml), then dried and used.
(§2) As bacteria to be tested, • ① Staphylococcus aureus IFO-12732 [hereinafter abbreviated to Sta.] • ② Bacillus subtilis IFO-13719 [Bac.] • ③ Escherichia coli IFO-3301 [Esc.] were used. As yeast to be tested, • ④ Saccharomyces cerevisiae IFO-0210 [Sac.] • ⑤ Candida albicans IFO-0583 [Can.] were used. As fungi to be tested, • ⑥ Aspergillus niger IFO-4407 [Asp.] • ⑦ Penicillium citrinum IFO-7784 [Pen.] • ⑧ Tyromyces palustris IFO-30339 [Tyr.] • ⑨ Coriolus versicolor IFO-30340 [Cor.] were used. Among the above fungi, Tyr. and Cor. are wood rot fungi.
(§3) As the test media, agar media shown below were used. That is, TSA (Trypticase Soy Agar) medium was used for Sta., Bac. and Esc.; YNB (Yeast Nitrogen Base) agar medium was used for Sac. and Can.; SDA (Sabouraud Dextrose Agar) medium was used for Asp. and Pen.; and PDA (Potato Dextrose Agar) medium was used for Try. and Cor.
(§4) The determination of antibacterial and antifungal effectiveness was carried out by measuring the diameter of the growth inhibition circle generated on the circumference of the paper disc. The indication of effectiveness is given as follows: -: no growth inhibition circle was observed. +: diameter of the growth inhibition circle was 9 - 20 mm ++: diameter of the growth inhibition circle was 21 - 40 mm +++: diameter of the growth inhibition circle was 41 mm or more

[2] = tested on: Escherichia coli IFO-3301; test: as above; type: cell-based; settings: paper disc d=8 mm dipped in 1,000 µg/ml solution, TSA medium; for zone of inhibition at 1000 µg/mL: Escherichia coli, IFO3301, read-out: diameter of the growth inhibition circle, Esc.(IFO-3301)
Procedure: as §1, §2, §3, §4

[3] = tested on: Penicillium citrinum IFO-7784; test: as above; type: cell-based; settings: IFO7784, paper disc d=8 mm dipped in 1,000 µg/ml solution, SDA medium, read-out: diameter of the growth inhibition circle, Pen.(IFO-7784)
Procedure: as §1, §2, §3, §4

[4] = tested on: Coptofermes formosanus SHIRAKI; test: Anti-termite activity, contact toxicity on treated quartz sand; type: in vivo
Procedure: This test was conducted on the basis of the method described in Specification No.11 of Japan Wood Preserving Association, enacted in 1981 and titled "The test methods of anti-termite activity for anti-termite agent used in the coating, spraying and dipping treatment, (1) Laboratory test methods".
The termite to be used was Coptofermes formosanus SHIRAKI ("ieshiroari").
4-2-1 The treated quartz sand was prepared as follows : The quartz sand, which passed through a sieve with 60 mesh screen, of 3 g was mixed with the BACTRO-AGAR solution of 1 ml with good agitation. Then, water content was adjusted to 5 %.
4-2-2 The test quartz sand was prepared as follows : The anti-termite agent solution of intended concentration (ppm) was added to the above treated quartz sand, then was mixed, and then was allowed to stand for 14 days to vaporize solvents.
4-2-3 The test quartz sand of 4 g were put into a Petri dish (6 cm in diameter) sterilized with dry heat.
4-2-4 Ten termite workers were randomly sampled from their nest, and then put on the quartz sand.
4-2-5 Each Petri dish was placed in a vessel containing water in the bottom, and then the vessel was allowed to stand in the constant temperature room at 28 ± 2 °C for 14 days. The number of the dead termites was observed and recorded. The first day : every 2 hours for 8 hours. After the second day : every 24 hour.
4-2-6 Test was repeated three times for each concentration of anti-termite agent solution.
4-3-1 Each time when observing, the number of healthy termites and dead termites were recorded.
4-3-2 The results are shown below in Table 4. […]

[5] = concentration 100 ppm, term of contact 1 day
[6] = concentration 100 ppm, term of contact 2 days
[7] = concentration 100 ppm, term of contact 3 days
[8] = concentration 100 ppm, term of contact 5 days
[9] = concentration 1000 ppm, term of contact 1 day
[10] = concentration 1000 ppm, term of contact 2 days
[11] = concentration 1000 ppm, term of contact 3 days
[12] = concentration 1000 ppm, term of contact 5 days

Compound | zone of inhibition at 1000 µg/mL [1] [mm] | zone of inhibition at 1000 µg/mL [2] [mm] | zone of inhibition at 1000 µg/mL [3] [mm] | Death rate (%) [4, 5] [%] | Death rate (%) [4, 6] [%] | Death rate (%) [4, 7] [%] | Death rate (%) [4, 8] [%] | Death rate (%) [4, 9] [%] | Death rate (%) [4, 10] [%] | Death rate (%) [4, 11] [%] | Death rate (%) [4, 12] [%] | diameter of the growth inhibition circle, Esc.(IFO-3301) [2]
CCCCCNC(=O)C#CI [Example 7, N-(n-Pentyl)-3-iodopropiolamide] | 21 to 40 | 9 to 20 | > 41 |  |  |  |  |  |  |  |  | 
CCCCCCNC(=O)C#CI [Example 8, N-(n-Hexyl)-3-iodopropiolamide] | 21 to 40 | 9 to 20 | > 41 | 0 | 0 | 20 | 100 | 0 | 0 | 70 | 100 | 
CCCCCCCCCCNC(=O)C#CI [Example 2, N-(n-Decyl)-3-iodopropiolamide] | 9 to 20 |  | 9 to 20 |  |  |  |  |  |  |  |  | -
CC(C)CNC(=O)C#CI [Example 6, N-Isobutyl-3-iodopropiolamide] | 21 to 40 |  | 21 to 40 |  |  |  |  |  |  |  |  | -
CC(C)(C)NC(=O)C#CI [Example 1, N-(tert-Butyl)-3-iodopropiolamide] | 21 to 40 | 9 to 20 | > 41 | 0 | 0 | 30 | 100 | 0 | 50 | 100 | 100 | 
CCCCCCCCNC(=O)C#CI [Example 10, N-(n-Octyl)-3-iodopropiolamide] | 21 to 40 |  | 21 to 40 |  |  |  |  |  |  |  |  | -
CCC(C)NC(=O)C#CI (stereo not drawn) [Example 5, N-(sec-Butyl)-3-iodopropiolamide] | 21 to 40 | 9 to 20 | > 41 |  |  |  |  |  |  |  |  | 
CCCCNC(=O)C#CI [Example 4, N-(n-Butyl)-3-iodopropiolamide] | 21 to 40 | 9 to 20 | > 41 | 0 | 0 | 30 | 100 | 0 | 30 | 100 | 100 | 
CCCCCCCNC(=O)C#CI [Example 9, N-(n-Heptyl)-3-iodopropiolamide] | 21 to 40 |  | > 41 |  |  |  |  |  |  |  |  | -
CCCCCCCCCNC(=O)C#CI [Example 11, N-(n-Nonyl)-3-iodopropiolamide] | 9 to 20 |  | 21 to 40 |  |  |  |  |  |  |  |  | -

— patent EP0519427A2, “N-substituted-3-iodopropiolamide, production and use thereof” (priority 1991, dated 1992)
